Results as given in paper PMC4959447 (Journal of medicinal chemistry, 2015).
Values joined by “and” are separate entries in the source; they are usually repeats but may differ in a detail not shown here. Equal entries are not always repeated. Where two headings read alike, the source gives them in different places. Each block holds one compound with its values, some of them ahead of it.

How the values were obtained:
leukemia cell lines = assay: NCI-60 five-dose screen, leukemia sub-panel; assay type: cell-based; details: Homo sapiens, read-out: GI50 values in the range
[1] = test system: panel of 60 human cancer cell lines; assay: NCI-60 five-dose screen, whole panel; assay type: cell-based
[2] = test system: primary AML cell specimen AML03; assay: Primary AML cell assay; assay type: cell-based; details: Homo sapiens, 24 h
[3] = test system: primary AML cell specimens; assay: Primary AML cell assay, specimens taken together; assay type: cell-based; details: Homo sapiens
M9-ENL1 cells = assay: M9-ENL1 cell assay; assay type: cell-based; details: M9-ENL1, 24 h
[4] = test system: rat 9L-SF gliosarcoma cells; assay: Colony formation assay with 9L-SF cells

Structure (SMILES): C=C1C(=O)O[C@H]2[C@H]1CC/C(COC(=O)NCCCCNC(=O)OC/C1=C/CC[C@@]3(C)O[C@H]3[C@H]3OC(=O)C(=C)[C@@H]3CC1)=C\CC[C@@]1(C)O[C@@H]21 [7b, bis-E-(((1aR,7aS,10aS,10bS)-1a-Methyl-8-methylene-9-oxo-1a,2,3,6,7,7a,8,9,10a,10b-decahydrooxireno[2',3':9,10]cyclodeca[1,2-b]furan-5-yl)methyl)butane-1,4-diyldicarbamate]
GI50 (leukemia cell lines): 250 to 780 nM

Structure (SMILES): C=C1C(=O)O[C@H]2[C@H]1CC/C(COC(=O)NCCCCCNC(=O)OC/C1=C/CC[C@@]3(C)O[C@H]3[C@H]3OC(=O)C(=C)[C@@H]3CC1)=C\CC[C@@]1(C)O[C@@H]21 [7c, bis-E-(((1aR,7aS,10aS,10bS)-1a-Methyl-8-methylene-9-oxo-1a,2,3,6,7,7a,8,9,10a,10b-decahydrooxireno[2',3':9,10]cyclodeca[1,2-b]furan-5-yl)methyl)pentane-1,5-diyldicarbamate]
GI50 (leukemia cell lines): 250 to 780 nM

Structure (SMILES): C=C1C(=O)O[C@H]2[C@H]1CC/C(COC(=O)NCCCCCCCCNC(=O)OC/C1=C/CC[C@@]3(C)O[C@H]3[C@H]3OC(=O)C(=C)[C@@H]3CC1)=C\CC[C@@]1(C)O[C@@H]21 [7f, bis-E-(((1aR,7aS,10aS,10bS)-1a-Methyl-8-methylene-9-oxo-1a,2,3,6,7,7a,8,9,10a,10b-decahydrooxireno[2',3':9,10]cyclodeca[1,2-b]furan-5-yl)methyl)octane-1,8-diyldicarbamate]
GI50 (leukemia cell lines): 250 to 780 nM
GI50 ([1]; 60 cell, read-out: GI50 values in the nanomolar range, against most of the solid tumor cell lines in the 60 cell panel): 160 to 999 nM
GI50 ([1]; read-out: GI50 values, against more than 50% of the cancer cell lines in the panel): < 500 nM

EC50 [2]: 1200 nM
Structure (SMILES): C=C1C(=O)O[C@H]2[C@H]1CC/C(COC(=O)OCCCCCOC(=O)OC/C1=C/CC[C@@]3(C)O[C@H]3[C@H]3OC(=O)C(=C)[C@@H]3CC1)=C\CC[C@@]1(C)O[C@@H]21 [7j, bis-E-(((1aR,7aS,10aS,10bS)-1a-Methyl-8-methylene-9-oxo-1a,2,3,6,7,7a,8,9,10a,10b-decahydrooxireno[2',3':9,10]cyclodeca[1,2-b]furan-5-yl)methyl)pentane-1,5-diyldicarbonate]

EC50 [2]: 5000 nM
EC50 ([3]; AML01, read-out: EC50 (range)): 2500 to 8000 nM
EC50 ([3]; read-out: EC50 (range)): 2500 to 16000 nM
Structure (SMILES): C=C1C(=O)O[C@@H]2[C@H]3O[C@]3(C)CC/C=C(\C)CC[C@@H]12 [compound 1, parthenolide]

Structure (SMILES): C=C1C(=O)O[C@H]2[C@H]1CC/C(COC(=O)OC/C1=C/CC[C@@]3(C)O[C@H]3[C@H]3OC(=O)C(=C)[C@@H]3CC1)=C\CC[C@@]1(C)O[C@@H]21 [compound 8, bis-E-(((1aR,7aS,10aS,10bS)-1a-Methyl-8-methylene-9-oxo-1a,2,3,6,7,7a,8,9,10a,10b-decahydrooxireno[2',3':9,10]cyclodeca[1,2-b]furan-5-yl)methyl) carbonate]
EC50 (M9-ENL1 cells): 500 nM
fold more cytotoxic than DMAPT ([4]; clonogenic survival, 48 h, at a concentration of 10 μM): 1 × 10^6 fold and 1.08 × 10^6 fold
fold more toxic than compound 7f ([4]; colony formation assay, at 10 μM): 3,564 fold
